≈ marks a conversion by molar mass, not a printed value.
Assays:
Assay type in all cases: functional
Plutella xylostella [1] = test: Insecticidal activity against Plutella xylostella (diamondback moth) […] larvae infested on compound pre-treated fresh cabbage leaves assessed as larvicidal activity at 200 mg/L measured 3 days post treatment
Culex pipiens pallens [2] = test: Insecticidal activity against Culex pipiens pallens (mosquito) fourth-instar larvae assessed as larvicidal activity at 2 mg/L measured 8 days post treatment; details: 192 h
Mythimna separata [3] = test: Insecticidal activity against Mythimna separata (Oriental armyworm) fourth-instar larvae infested compound pre-treated corn leaves assessed as larvicidal activity at 100 mg/L measured 4 days post treatment
Mythimna separata [4] = test: Insecticidal activity against Mythimna separata (Oriental armyworm) fourth-instar larvae infested compound pre-treated corn leaves assessed as larvicidal activity at 50 mg/L measured 4 days post treatment
Culex pipiens pallens [5] = test: Insecticidal activity against Culex pipiens pallens (mosquito) fourth-instar larvae assessed as larvicidal activity at 0.5 mg/L measured 8 days post treatment; details: 192 h
Plutella xylostella [6] = test: Insecticidal activity against Plutella xylostella (diamondback moth) […] larvae infested on compound pre-treated fresh cabbage leaves assessed as larvicidal activity at 20 mg/L measured 3 days post treatment
Plutella xylostella [7] = test: Insecticidal activity against Plutella xylostella (diamondback moth) […] larvae infested on compound pre-treated fresh cabbage leaves assessed as larvicidal activity at 5 mg/L measured 3 days post treatment
Culex pipiens pallens [8] = test: Insecticidal activity against Culex pipiens pallens (mosquito) fourth-instar larvae assessed as larvicidal activity at 1 mg/L measured 8 days post treatment; details: 192 h
Mythimna separata [9] = test: Insecticidal activity against Mythimna separata (Oriental armyworm) fourth-instar larvae infested compound pre-treated corn leaves assessed as larvicidal activity at 10 mg/L measured 4 days post treatment
Mythimna separata [10] = test: Insecticidal activity against Mythimna separata (Oriental armyworm) fourth-instar larvae infested compound pre-treated corn leaves assessed as larvicidal activity at 25 mg/L measured 4 days post treatment
Mythimna separata [11] = test: Insecticidal activity against Mythimna separata (Oriental armyworm) fourth-instar larvae infested compound pre-treated corn leaves assessed as larvicidal activity at 5 mg/L measured 4 days post treatment
Mythimna separata [12] = test: Insecticidal activity against Mythimna separata (Oriental armyworm) fourth-instar larvae infested compound pre-treated corn leaves assessed as larvicidal activity at 2.5 mg/L measured 4 days post treatment
Plutella xylostella [13] = test: Insecticidal activity against Plutella xylostella (diamondback moth) […] larvae infested on compound pre-treated fresh cabbage leaves assessed as larvicidal activity at 2 mg/L measured 3 days post treatment
Plutella xylostella [14] = test: Insecticidal activity against Plutella xylostella (diamondback moth) […] larvae infested on compound pre-treated fresh cabbage leaves assessed as larvicidal activity at 0.2 mg/L measured 3 days post treatment
Plutella xylostella [15] = test: Insecticidal activity against Plutella xylostella (diamondback moth) […] larvae infested on compound pre-treated fresh cabbage leaves assessed as larvicidal activity at 0.02 mg/L measured 3 days post treatment
Mythimna separata [16] = test: Insecticidal activity against Mythimna separata (Oriental armyworm) fourth-instar larvae infested compound pre-treated corn leaves assessed as larvicidal activity at 200 mg/L measured 4 days post treatment
Mythimna separata [17] = test: Insecticidal activity against Mythimna separata (Oriental armyworm) fourth-instar larvae infested compound pre-treated corn leaves assessed as larvicidal activity at 1 mg/L measured 4 days post treatment
Culex pipiens pallens [18] = test: Insecticidal activity against Culex pipiens pallens (mosquito) fourth-instar larvae assessed as larvicidal activity at 0.001 mg/L measured 8 days post treatment; details: 192 h
Culex pipiens pallens [19] = test: Insecticidal activity against Culex pipiens pallens (mosquito) fourth-instar larvae assessed as larvicidal activity at 0.005 mg/L measured 8 days post treatment; details: 192 h
Culex pipiens pallens [20] = test: Insecticidal activity against Culex pipiens pallens (mosquito) fourth-instar larvae assessed as larvicidal activity at 0.0005 mg/L measured 8 days post treatment; details: 192 h
Plutella xylostella [21] = test: Insecticidal activity against Plutella xylostella (diamondback moth) […] larvae infested on compound pre-treated fresh cabbage leaves assessed as larvicidal activity measured 3 days post treatment
Mythimna separata [22] = test: Insecticidal activity against Mythimna separata (Oriental armyworm) fourth-instar larvae infested compound pre-treated corn leaves assessed as larvicidal activity at 0.25 mg/L measured 4 days post treatment
Mythimna separata [23] = test: Insecticidal activity against Mythimna separata (Oriental armyworm) fourth-instar larvae infested compound pre-treated corn leaves assessed as larvicidal activity at 0.5 mg/L measured 4 days post treatment

SMILES | mortality at 200 µg/mL (Plutella xylostella [1]) [%] | mortality at 2 µg/mL (Culex pipiens pallens [2]) [%] | mortality at 100 µg/mL (Mythimna separata [3]) [%] | mortality at 50 µg/mL (Mythimna separata [4]) [%] | mortality at 200 µg/mL (Mythimna separata [16]) [%] | further results
O=C(NC(=O)c1c(F)cccc1F)Nc1ccc(C2=NOC3(CCCCC3)C2)cc1 | 20 | 70 | 100 | 40 | – | –
O=C(NC(=O)c1c(F)cccc1F)Nc1ccc(C2=NOC3(CCCC3)C2)cc1 | 10 | 80 | 100 | 60 | – | –
O=C(NC(=O)c1c(F)cccc1F)Nc1ccc(C2=NOC3CCCC23)cc1 (centres undefined) | 0 | 50 | 100 | 0 | – | –
O=C(NC(=O)c1c(F)cccc1F)Nc1ccc(C2=NOC3CC23)cc1 (centres undefined) | 10 | 60 | 100 | 0 | – | –
O=C(NC(=O)c1c(F)cccc1F)Nc1ccc(C2CC(c3ccc(F)cc3)=NO2)cc1 (centres undefined) | 100 | 100 | – | 100 | – | mortality at 0.5 µg/mL (Culex pipiens pallens [5]): 70%; mortality at 20 µg/mL (Plutella xylostella [6]): 70%; mortality at 5 µg/mL (Plutella xylostella [7]): 0%; mortality at 1 µg/mL (Culex pipiens pallens [8]): 100%; mortality at 10 µg/mL (Mythimna separata [9]): 60%; mortality at 25 µg/mL (Mythimna separata [10]): 100%
CC(C)(C)C1=NOC(c2ccc(NC(=O)NC(=O)c3c(F)cccc3F)cc2)C1 (centres undefined) | 100 | 100 | – | 100 | – | mortality at 20 µg/mL (Plutella xylostella [6]): 100%; mortality at 5 µg/mL (Plutella xylostella [7]): 30%; mortality at 1 µg/mL (Culex pipiens pallens [8]): 80%; mortality at 10 µg/mL (Mythimna separata [9]): 40%; mortality at 25 µg/mL (Mythimna separata [10]): 100%
CC(C)(C)c1cc(-c2ccc(NC(=O)NC(=O)c3c(F)cccc3F)cc2)no1 | – | 40 | – | – | – | mortality at 5 µg/mL (Mythimna separata [11]): 100%; mortality at 2.5 µg/mL (Mythimna separata [12]): 0%; mortality at 5 µg/mL (Plutella xylostella [7]): 100%; mortality at 2 µg/mL (Plutella xylostella [13]): 100%; mortality at 0.2 µg/mL (Plutella xylostella [14]): 60%; mortality at 0.02 µg/mL (Plutella xylostella [15]): 30%; mortality at 10 µg/mL (Mythimna separata [9]): 100%
O=C(NC(=O)c1c(F)cccc1F)Nc1ccc(-c2cc(COCC(F)(F)F)on2)cc1 | 30 | 40 | 100 | 20 | 100 | mortality at 20 µg/mL (Plutella xylostella [6]): 0%
CCCCOCc1cc(-c2ccc(NC(=O)NC(=O)c3c(F)cccc3F)cc2)no1 | 0 | 60 | 100 | 80 | 100 | –
Cc1cc(-c2ccc(NC(=O)NC(=O)c3c(F)cccc3F)cc2)no1 | 10 | 20 | 100 | 20 | 100 | –
CCCCCCCCc1cc(-c2ccc(NC(=O)NC(=O)c3c(F)cccc3F)cc2)no1 | 10 | 40 | 100 | 20 | 100 | –
CC(C)(C)O/N=C/c1ccc(NC(=O)NC(=O)c2c(F)cccc2F)cc1 | – | – | – | – | – | mortality at 1 µg/mL (Mythimna separata [17]): 100%; mortality at 0.001 µg/mL (Culex pipiens pallens [18]): 70%; mortality at 0.005 µg/mL (Culex pipiens pallens [19]): 100%; mortality at 0.0005 µg/mL (Culex pipiens pallens [20]): 20%; LC50 (Plutella xylostella [21]): 30.8 µg/mL (≈ 82 µM); mortality at 0.25 µg/mL (Mythimna separata [22]): 0%; mortality at 0.5 µg/mL (Mythimna separata [23]): 85%
